According to patent US9579314B2 (priority 2015, dated 2017):

Experiments:
Human M3 receptor = Human M3 receptor (Homo sapiens, UniProt P20309); conditions: read-out: M3 binding affinity
Human β2 adrenoceptor = Human β2 adrenoceptor (Homo sapiens, UniProt P07550); conditions: read-out: B2 binding affinity
Human β2 adrenoceptor, sequence (P07550 whole entry): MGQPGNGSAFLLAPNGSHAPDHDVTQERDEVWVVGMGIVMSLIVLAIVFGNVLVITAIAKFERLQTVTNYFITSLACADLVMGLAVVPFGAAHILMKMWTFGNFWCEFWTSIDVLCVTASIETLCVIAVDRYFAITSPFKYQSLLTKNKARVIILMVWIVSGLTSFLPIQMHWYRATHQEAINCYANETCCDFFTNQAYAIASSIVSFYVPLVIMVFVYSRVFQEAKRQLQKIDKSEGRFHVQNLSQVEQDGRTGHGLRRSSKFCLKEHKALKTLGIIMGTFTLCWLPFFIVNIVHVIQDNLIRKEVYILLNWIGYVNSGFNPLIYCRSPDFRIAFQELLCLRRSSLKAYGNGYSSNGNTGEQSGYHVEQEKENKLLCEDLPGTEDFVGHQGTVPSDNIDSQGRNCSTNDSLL

Human M3 receptor, sequence (P20309 whole entry): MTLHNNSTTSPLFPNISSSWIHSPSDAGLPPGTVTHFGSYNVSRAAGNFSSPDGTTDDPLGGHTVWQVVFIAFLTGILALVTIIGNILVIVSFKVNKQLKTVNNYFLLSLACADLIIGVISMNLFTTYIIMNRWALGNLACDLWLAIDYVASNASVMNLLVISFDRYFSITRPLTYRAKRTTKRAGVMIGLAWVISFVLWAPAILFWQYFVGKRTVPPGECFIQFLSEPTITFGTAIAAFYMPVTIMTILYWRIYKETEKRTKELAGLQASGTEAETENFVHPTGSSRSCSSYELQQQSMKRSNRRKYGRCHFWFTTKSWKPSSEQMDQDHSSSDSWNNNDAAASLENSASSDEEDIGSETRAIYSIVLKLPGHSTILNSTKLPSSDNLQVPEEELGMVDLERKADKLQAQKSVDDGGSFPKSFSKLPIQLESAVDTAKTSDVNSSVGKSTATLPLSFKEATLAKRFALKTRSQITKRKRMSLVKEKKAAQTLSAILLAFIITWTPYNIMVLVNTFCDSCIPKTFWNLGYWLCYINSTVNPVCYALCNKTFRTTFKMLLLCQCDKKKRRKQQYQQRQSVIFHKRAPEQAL

| SMILES | IC50 (Human M3 receptor) | IC50 (Human β2 adrenoceptor) |
| --- | --- | --- |
| O=C(COc1cccc([C@](O)(C(=O)OCC2CCN(Cc3ccccc3)CC2)c2ccccc2)c1)N[C@H]1C[C@H](NC(=O)c2ccc(CNC[C@H](O)c3ccc(O)c4[nH]c(=O)ccc34)cc2F)C1 [Compound 128, (S)-(1-benzylpiperidin-4-yl)methyl 2-(3-(2-(((1R,3S)-3-(2-fluoro-4-((((R)-2-hydroxy-2-(8-hydroxy-2-oxo-1,2-dihydroquinolin-5-yl)ethyl)amino)methyl)benzamido)cyclobutyl)amino)-2-oxoethoxy)phenyl)-2-hydroxy-2-phenylacetate] | 300 to 3000 pM | < 300 pM |
| COc1cc(CNC[C@H](O)c2ccc(O)c3[nH]c(=O)ccc23)ccc1C(=O)N[C@H]1C[C@H](NC(=O)COc2cccc([C@](O)(C(=O)OCC3CCN(Cc4ccccc4)CC3)c3ccccc3)c2)C1 [Compound 130, (S)-(1-benzylpiperidin-4-yl)methyl 2-hydroxy-2-(3-(2-(((1R,3S)-3-(4-((((R)-2-hydroxy-2-(8-hydroxy-2-oxo-1,2-dihydroquinolin-5-yl)ethyl)amino)methyl)-2-methoxybenzamido)cyclobutyl)amino)-2-oxoethoxy)phenyl)-2-phenylacetate] | 300 to 3000 pM | 300 to 3000 pM |
| COc1cc(C(=O)N[C@H]2C[C@H](NC(=O)COc3cccc([C@](O)(C(=O)OCC4CCN(Cc5ccccc5)CC4)c4ccccc4)c3)C2)ccc1CNC[C@H](O)c1ccc(O)c2[nH]c(=O)ccc12 [Compound 131, (S)-(1-benzylpiperidin-4-yl)methyl 2-hydroxy-2-(3-(2-(((1R,3S)-3-(4-((((R)-2-hydroxy-2-(8-hydroxy-2-oxo-1,2-dihydroquinolin-5-yl)ethyl)amino)methyl)-3-methoxybenzamido)cyclobutyl)amino)-2-oxoethoxy)phenyl)-2-phenylacetate] | 300 to 3000 pM | < 300 pM |
| O=C(COc1cccc([C@](O)(C(=O)OCC2CCN(Cc3ccccc3)CC2)c2ccccc2)c1)N[C@H]1C[C@H](NC(=O)c2ccc(CNC[C@H](O)c3ccc(O)c4[nH]c(=O)ccc34)c(F)c2)C1 [Compound 132, (1-benzylpiperidin-4-yl)methyl (S)-2-(3-(2-(((1R,3S)-3-(3-fluoro-4-((((R)-2-hydroxy-2-(8-hydroxy-2-oxo-1,2-dihydroquinolin-5-yl)ethyl)amino)methyl)benzamido)cyclobutyl)amino)-2-oxoethoxy)phenyl)-2-hydroxy-2-phenylacetate] | 300 to 3000 pM | < 300 pM |
| O=C(COc1cccc([C@](O)(C(=O)OCC2CCN(Cc3ccccc3)CC2)c2ccccc2)c1)N[C@H]1C[C@H](NC(=O)c2ccc(CNC[C@H](O)c3ccc(O)c4[nH]c(=O)ccc34)cc2Cl)C1 [Compound 133, (1-benzylpiperidin-4-yl)methyl (S)-2-(3-(2-(((1R,3S)-3-(2-chloro-4-((((R)-2-hydroxy-2-(8-hydroxy-2-oxo-1,2-dihydroquinolin-5-yl)ethyl)amino)methyl)benzamido)cyclobutyl)amino)-2-oxoethoxy)phenyl)-2-hydroxy-2-phenylacetate] | < 300 pM | < 300 pM |
| O=C(COc1cccc([C@](O)(C(=O)OCC2CCN(Cc3ccccc3)CC2)c2ccccc2)c1)N[C@H]1C[C@H](NC(=O)c2ccc(CNC[C@H](O)c3ccc(O)c4[nH]c(=O)ccc34)c(F)c2F)C1 [Compound 134, (1-benzylpiperidin-4-yl)methyl (S)-2-(3-(2-(((1R,3S)-3-(2,3-difluoro-4-((((R)-2-hydroxy-2-(8-hydroxy-2-oxo-1,2-dihydroquinolin-5-yl)ethyl)amino)methyl)benzamido)cyclobutyl)amino)-2-oxoethoxy)phenyl)-2-hydroxy-2-phenylacetate] | 300 to 3000 pM | < 300 pM |
| O=C(COc1cccc([C@](O)(C(=O)OCC2CCN(Cc3ccccc3)CC2)c2ccccc2)c1)N[C@H]1C[C@H](NC(=O)c2ccc(CNC[C@H](O)c3ccc(O)c4[nH]c(=O)ccc34)c(Cl)c2)C1 [Compound 135, (1-benzylpiperidin-4-yl)methyl (S)-2-(3-(2-(((1R,3S)-3-(3-chloro-4-((((R)-2-hydroxy-2-(8-hydroxy-2-oxo-1,2-dihydroquinolin-5-yl)ethyl)amino)methyl)benzamido)cyclobutyl)amino)-2-oxoethoxy)phenyl)-2-hydroxy-2-phenylacetate] | 300 to 3000 pM | < 300 pM |
| O=C(COc1cccc([C@](O)(C(=O)OCC2CCN(Cc3ccccc3)CC2)c2ccccc2)c1)N[C@H]1C[C@H](NC(=O)c2ccc(CNC[C@H](O)c3ccc(O)c4[nH]c(=O)ccc34)cc2Br)C1 [Compound 136, (1-benzylpiperidin-4-yl)methyl (S)-2-(3-(2-(((1R,3S)-3-(2-bromo-4-((((R)-2-hydroxy-2-(8-hydroxy-2-oxo-1,2-dihydroquinolin-5-yl)ethyl)amino)methyl)benzamido)cyclobutyl)amino)-2-oxoethoxy)phenyl)-2-hydroxy-2-phenylacetate] | 300 to 3000 pM | < 300 pM |
| COc1cc(C(=O)N[C@H]2C[C@H](NC(=O)COc3cccc([C@](O)(C(=O)OCC4CCN(Cc5ccccc5)CC4)c4ccccc4)c3)C2)c(Cl)cc1CNC[C@H](O)c1ccc(O)c2[nH]c(=O)ccc12 [Compound 137, (1-benzylpiperidin-4-yl)methyl (S)-2-(3-(2-(((1R,3S)-3-(2-chloro-4-((((R)-2-hydroxy-2-(8-hydroxy-2-oxo-1,2-dihydroquinolin-5-yl)ethyl)amino)methyl)-5-methoxybenzamido)cyclobutyl)amino)-2-oxoethoxy)phenyl)-2-hydroxy-2-phenylacetate] | 300 to 3000 pM | < 300 pM |
| O=C(COc1cccc([C@](O)(C(=O)OCC2CCN(Cc3ccccc3)CC2)c2ccccc2)c1)N[C@H]1C[C@H](NC(=O)c2ccc(CNC[C@H](O)c3ccc(O)c4[nH]c(=O)ccc34)c(C(F)(F)F)c2)C1 [Compound 138, (1-benzylpiperidin-4-yl)methyl (S)-2-hydroxy-2-(3-(2-(((1R,3S)-3-(4-((((R)-2-hydroxy-2-(8-hydroxy-2-oxo-1,2-dihydroquinolin-5-yl)ethyl)amino)methyl)-3-(trifluoromethyl)benzamido)cyclobutyl)amino)-2-oxoethoxy)phenyl)-2-phenylacetate] | 300 to 3000 pM | 300 to 3000 pM |
| COc1c(CNC[C@H](O)c2ccc(O)c3[nH]c(=O)ccc23)ccc(C(=O)N[C@H]2C[C@H](NC(=O)COc3cccc([C@](O)(C(=O)OCC4CCN(Cc5ccccc5)CC4)c4ccccc4)c3)C2)c1F [Compound 139, (1-benzylpiperidin-4-yl)methyl (S)-2-(3-(2-(((1R,3S)-3-(2-fluoro-4-((((R)-2-hydroxy-2-(8-hydroxy-2-oxo-1,2-dihydroquinolin-5-yl)ethyl)amino)methyl)-3-methoxybenzamido)cyclobutyl)amino)-2-oxoethoxy)phenyl)-2-hydroxy-2-phenylacetate] | 300 to 3000 pM | < 300 pM |
| CCOc1cc(C(=O)N[C@H]2C[C@H](NC(=O)COc3cccc([C@](O)(C(=O)OCC4CCN(Cc5ccccc5)CC4)c4ccccc4)c3)C2)ccc1CNC[C@H](O)c1ccc(O)c2[nH]c(=O)ccc12 [Compound 140, (1-benzylpiperidin-4-yl)methyl (S)-2-(3-(2-(((1R,3S)-3-(3-ethoxy-4-((((R)-2-hydroxy-2-(8-hydroxy-2-oxo-1,2-dihydroquinolin-5-yl)ethyl)amino)methyl)benzamido)cyclobutyl)amino)-2-oxoethoxy)phenyl)-2-hydroxy-2-phenylacetate] | 300 to 3000 pM | 300 to 3000 pM |
| O=C(COc1cccc([C@](O)(C(=O)OCC2CCN(Cc3ccccc3)CC2)c2ccccc2)c1)N[C@H]1C[C@H](NC(=O)c2ccc(CNC[C@H](O)c3ccc(O)c4[nH]c(=O)ccc34)c(OC(F)(F)F)c2)C1 [Compound 141, (1-benzylpiperidin-4-yl)methyl (S)-2-hydroxy-2-(3-(2-(((1R,3S)-3-(4-((((R)-2-hydroxy-2-(8-hydroxy-2-oxo-1,2-dihydroquinolin-5-yl)ethyl)amino)methyl)-3-(trifluoromethoxy)benzamido)cyclobutyl)amino)-2-oxoethoxy)phenyl)-2-phenylacetate] | 300 to 3000 pM | 300 to 3000 pM |
| COc1cc(C(=O)N[C@H]2C[C@H](NC(=O)COc3cccc([C@](O)(C(=O)OCC4CCN(Cc5ccccc5)CC4)c4ccccc4)c3)C2)c(F)cc1CNC[C@H](O)c1ccc(O)c2[nH]c(=O)ccc12 [Compound 142, (1-benzylpiperidin-4-yl)methyl (S)-2-(3-(2-(((1R,3S)-3-(2-fluoro-4-((((R)-2-hydroxy-2-(8-hydroxy-2-oxo-1,2-dihydroquinolin-5-yl)ethyl)amino)methyl)-5-methoxybenzamido)cyclobutyl)amino)-2-oxoethoxy)phenyl)-2-hydroxy-2-phenylacetate] | 300 to 3000 pM | < 300 pM |
| CC(C)Oc1cc(C(=O)N[C@H]2C[C@H](NC(=O)COc3cccc([C@](O)(C(=O)OCC4CCN(Cc5ccccc5)CC4)c4ccccc4)c3)C2)ccc1CNC[C@H](O)c1ccc(O)c2[nH]c(=O)ccc12 [Compound 143, (1-benzylpiperidin-4-yl)methyl (S)-2-hydroxy-2-(3-(2-(((1R,3S)-3-(4-((((R)-2-hydroxy-2-(8-hydroxy-2-oxo-1,2-dihydroquinolin-5-yl)ethyl)amino)methyl)-3-isopropoxybenzamido)cyclobutyl)amino)-2-oxoethoxy)phenyl)-2-phenylacetate] | 300 to 3000 pM | 300 to 3000 pM |
| O=C(COc1cccc([C@](O)(C(=O)OCC2CCN(Cc3ccccc3)CC2)c2ccccc2)c1)N[C@H]1C[C@H](NC(=O)c2ccc(CNC[C@H](O)c3ccc(O)c4[nH]c(=O)ccc34)cn2)C1 [Compound 144, (1-benzylpiperidin-4-yl)methyl (S)-2-hydroxy-2-(3-(2-(((1R,3S)-3-(5-((((R)-2-hydroxy-2-(8-hydroxy-2-oxo-1,2-dihydroquinolin-5-yl)ethyl)amino)methyl)picolinamido)cyclobutyl)amino)-2-oxoethoxy)phenyl)-2-phenylacetate] | 300 to 3000 pM | < 300 pM |
